Where a SMILES comes first, the peptide text is derived from it. The star is where a group is joined. X1 = CC1(C)C(=CC=C2CCCC(C=CC3=[N+](CCCCCC(=O)O)c4ccccc4C3(C)C)=C2*)N(CCCCCC(=O)O)c2ccccc21
Test system: H460 and 293T cells
Test: Confocal imaging of accumulation and retention in cells, H460 versus 293T
Type: cell-based, human
Details: 50 μM for 1 h, washed, at 6 h (maximum difference), cytoplasm, n = 15
Experimental: Fig. 3 Recognition and self-assembly of molecule 1 in cells. a Western blots of XIAP expression in H460 and 293T cells. b Confocal images of H460 cells treated with or without energy-dependent inhibitor (oligomycin A, 20 μM) for 1 h, and followed by washing with PBS and treated with the molecule 1 (50 μM) for 1 h. c Statistical analysis of average fluorescence intensities in the cytoplasm of H460 cells from confocal images. Data are presented as the mean ± s.d. (n = 100). ***p < 0.001, p values were performed with one-way ANOVA followed by post hoc Tukey’s test for the indicated comparison. d Confocal images of time-dependent monitoring of H460 and 293T cells treated with the molecule 1 (50 μM) for 1 h followed by washing with PBS and replacing the medium and a further incubation up to 48 h. e Statistical analysis of average fluorescence intensities in the cytoplasm of H460 and 293T cells from confocal images with a timescale range of 1–48 h. Data are presented as the mean ± s.d. […] Finally, incubate up to 6 h and imaging by confocal microscope. g Schematic diagram illustrates the process of NBD fluorescence illumination. h Confocal images of H460 cells treatment with molecule 1-NBD (50 μM) for 1 h. i TEM images of ultrathin section of H460 cells treated with molecule I-1 (50 μM) and without the molecule I-1 for up to 12 h. […]

## CC[C@H](C)[C@H](NC(=O)[C@@H]1CCCN1C(=O)[C@@H](NC(=O)[C@H](C)N)C(C)C)C(=O)N[C@@H](C)C(=O)N[C@@H](CCC(N)=O)C(=O)N[C@@H](CCCCN)C(=O)N[C@@H](CC(=O)O)C(=O)N[C@@H](CCC(=O)O)C(=O)N[C@H](C(=O)N[C@@H](CC(=O)O)C(=O)N[C@@H](CCCCN)C(=O)N[C@@H](CC(C)C)C(=O)N[C@H](C(=O)N[C@@H](Cc1ccccc1)C(=O)N[C@@H](Cc1ccccc1)C(=O)N[C@@H](C)C(=O)N[C@@H](CCC(=O)O)C(=O)N[C@@H](CSC1=C(C=CC2=[N+](CCCCCC(=O)O)c3ccccc3C2(C)C)CCCC1=CC=C1N(CCCCCC(=O)O)c2ccccc2C1(C)C)C(=O)NCC(=O)O)C(C)C)C(C)C [molecule 1] (H-AVPIAQKDEVDKLVFFAEC(X1)G-OH)
  fluorescent intensity in H460 cells relative to 293T cells: fivefold higher

From paper PMC6813295, “A tumour-selective cascade activatable self-detained system for drug delivery and cancer imaging” (Nature Communications, 2019)
